Data: US12583867B2, “Pyridone derivative crystal form and preparation method and application therefor” (priority 2019, dated 2026)

Assays:
[1] = Solid state stability of the crystal form (XRPD, HPLC); format: physicochemical
Protocol: The crystal form F samples of the compound of formula (1) were placed at 60° C. for 30 days, at 25° C./92.5% RH for 30 days, and exposed to light for 15 days, respectively. The physical and chemical stability of the samples were tested by XRPD and HPLC.

[2] = Hygroscopicity by dynamic vapour sorption (DVS); format: physicochemical
Protocol: • Instrument model: Bruker D8 Venture single-crystal diffractometer • Light source: Mo target • X-ray: Mo—K (=0.71073 Å) • Detector: CMOS based detector • Resolution: 0.84 Å • Current and voltage: 50 kV, […] 2. X-Ray Powder Diffraction (XRPD) • Instrument model: PANalytical X'Pert3 Power • X-ray: Cu, Kα, Kα1 (Å): 1.540598; Kα2 (Å): 1.544426 • X-ray tube setting: 45 kV, 40 mA • Divergence slit: 1/8° • Scan pattern: continuous • Scanning range (2θ): 3°-40° • Scan step size (2θ): 0.0263° 3. Differential Scanning Calorimetry (DSC) • Instrument model: TA Q2000/2500 differential scanning calorimeter • Heating rate: 10° C./min • Temperature range: 25° C. to setting end-point temperature • Shielding gas: nitrogen 4. Thermogravimetric Analysis (TGA) • Instrument model: TA Q5000/5500 thermogravimetric analyzer • Heating rate: 10° C./min • Temperature range: room temperature to setting end-point temperature • Shielding gas: nitrogen 5. Dynamic Vapour Sorption (DVS) • Instrument model: SMS DVS Intrinsic vapour sorption analyzer • Temperature: 25° C. • RH range: 0% RH-95% RH • Shielding gas: nitrogen

[3] = Mechanical stability: XRPD before and after jet milling; format: physicochemical; conditions: jet milled to D90≤10 μm
From the text: In addition, 224.90 g of the above compound of the formula (1) was jet milled (feed pressure 0.4 to 0.5 MPa, milling pressure 0.18 to 0.22 MPa) to give 212.00 g sample with a particle size of D90≤10 μm.

[4] = test system: influenza A virus (H1N1, A/WSN/33); assay: Efficacy on mice, IAV mouse infection model; format: in vivo, BALB/c mice; conditions: 15 mpk orally twice a day; for Body weight change: infected mice, during the experiment; for Mean difference of virus titer compared with the menstruum group: mice, 5th day after virus infection
From the text: Female BALB/c mice were inoculated with influenza A virus (H1N1, A/WSN/33) by intranasal administration to establish an IAV mouse infection model. Menstruum, the compound of formula (1) (15 mpk) or oseltamivir phosphate (15 mpk) were orally administered twice a day. Animal weight and survival status were monitored daily during the test, and on the 5th day, some animals were sacrificed to take lung tissue for virus titer detection, and the remaining mice were used for survival rate monitoring. The in vivo anti-influenza virus efficacy of the test compound was determined by virus titer in lung tissue, mouse body weight change and survival rate.

[5] = Light (white light 4500 Lux, ultraviolet light 90 μw/cm^2)/15 days

Question: For `COC(=O)OCOc1c2n(ccc1=O)N([C@@H]1c3ccccc3SCc3c1ccc(F)c3F)[C@@H]1COC3(CC3)CN1C2=O` [crystal form F], which Appearance and character ([1]; 25° C./92.5% RH/30 days) is on record?
Answer: White

Question: And the Crystal form change ([1]; 25° C./92.5% RH/30 days)?
Answer: No

Question: What about the “Purity (area %)” value ([1]; 25° C./92.5% RH/30 days) of the same compound?
Answer: 99.0 area %

Question: What about the “Purity/initial (%)” value ([1]; 25° C./92.5% RH/30 days) of the same compound?
Answer: 100.4%

Question: What about the Appearance and character ([1]; 60° C./30 days) of the same compound?
Answer: White

Question: What about the Crystal form change ([1]; 60° C./30 days) of the same compound?
Answer: No

Question: What about the “Purity (area %)” value ([1]; 60° C./30 days) of the same compound?
Answer: 98.7 area %

Question: What about the “Purity/initial (%)” value ([1]; 60° C./30 days) of the same compound?
Answer: 100.1%

Question: And the Appearance and character ([1]; Initial)?
Answer: White

Question: And the Crystal form change ([1]; Initial)?
Answer: No

Question: And the “Purity (area %)” value ([1]; Initial)?
Answer: 98.6 area %

Question: What about the Appearance and character [1, 5] of the same compound?
Answer: White

Question: What about the Crystal form change [1, 5] of the same compound?
Answer: No

Question: And the “Purity (area %)” value [1, 5]?
Answer: 98.5 area %

Question: And the “Purity/initial (%)” value [1, 5]?
Answer: 99.9%

Question: What about the “Crystal form before and after the DVS test (XRPD)” value ([2]; DVS at 25° C.) of the same compound?
Answer: did not change

Question: What about the Moisture-absorption weight gain ([2]; DVS, 25° C./80% RH) of the same compound?
Answer: 0.10%

Question: What about the “Crystal form before and after milling (XRPD)” value [3] of the same compound?
Answer: does not change

Question: With `CCOC(=O)C1=C[C@@H](OC(CC)CC)[C@H](NC(C)=O)[C@@H](N)C1` [Oseltamivir phosphate, oseltamivir phosphate, reference compound] as the compound, how does the Body weight change [4] read?
Answer: remained stable during the experiment, had no significant decline

Question: What about the “Mean difference of virus titer compared with the menstruum group” value [4] of the same compound?
Answer: 3.46 Log10 (plaques number/gram of

Question: With `COC(=O)OCOc1c2n(ccc1=O)N([C@@H]1c3ccccc3SCc3c1ccc(F)c3F)[C@@H]1COC3(CC3)CN1C2=O` [Compound of formula (1), (((R)-12′-((S)-7,8-difluoro-6,11-dihydrodibenzo[b,e]thiepin-11-yl)-6′,8′-dioxo-6′,8′,12′,12a′-tetrahydro-1′H,4′H-spiro[cyclopropane-1,3′-[1,4]oxazino[3,4-c]pyrido[2,1-f][1,2,4]triazin]-7′-yl)oxy)methyl methyl carbonate] as the compound, how does the Body weight change [4] read?
Answer: remained stable during the experiment, had no significant decline

Question: What about the “Mean difference of virus titer compared with the menstruum group” value [4] of the same compound?
Answer: 3.92 Log10 (plaques number/gram of
